Results as given in ChEMBL document CHEMBL3352615, “Synthesis and evaluation of ether-linked demethylepipodophyllotoxin dimers” (Bioorg Med Chem Lett, 2014).
Calls of active or inactive are those of the source. The rule behind the calls is not given here.

Assays:
[1] = tested on: A549; experiment: Cytotoxicity against human A549 cells after 48 hrs by Alamar Blue assay; format: functional, cell-based; details: A549, 48 h
[2] = Selectivity ratio of IC50 for rat L6 cells to IC50 for human A549 cells; format: ADME, cell-based; details: L6 cells and A549 cells, read-out: Ratio IC50
[3] = tested on: L6; experiment: Cytotoxicity against rat L6 cells after 71.5 hrs by Presto Blue assay; format: cell-based; details: L6, 71.5 h
[4] = target: DNA topoisomerase 2-alpha (Homo sapiens) (UniProt P11388); experiment: Inhibition of human topoisomerase-2 alpha assessed as Escherichia coli pBR322 DNA cleavage at 100 uM after 30 mins by agarose electrophoresis
Sequence of DNA topoisomerase 2-alpha (Homo sapiens) (P11388 whole entry): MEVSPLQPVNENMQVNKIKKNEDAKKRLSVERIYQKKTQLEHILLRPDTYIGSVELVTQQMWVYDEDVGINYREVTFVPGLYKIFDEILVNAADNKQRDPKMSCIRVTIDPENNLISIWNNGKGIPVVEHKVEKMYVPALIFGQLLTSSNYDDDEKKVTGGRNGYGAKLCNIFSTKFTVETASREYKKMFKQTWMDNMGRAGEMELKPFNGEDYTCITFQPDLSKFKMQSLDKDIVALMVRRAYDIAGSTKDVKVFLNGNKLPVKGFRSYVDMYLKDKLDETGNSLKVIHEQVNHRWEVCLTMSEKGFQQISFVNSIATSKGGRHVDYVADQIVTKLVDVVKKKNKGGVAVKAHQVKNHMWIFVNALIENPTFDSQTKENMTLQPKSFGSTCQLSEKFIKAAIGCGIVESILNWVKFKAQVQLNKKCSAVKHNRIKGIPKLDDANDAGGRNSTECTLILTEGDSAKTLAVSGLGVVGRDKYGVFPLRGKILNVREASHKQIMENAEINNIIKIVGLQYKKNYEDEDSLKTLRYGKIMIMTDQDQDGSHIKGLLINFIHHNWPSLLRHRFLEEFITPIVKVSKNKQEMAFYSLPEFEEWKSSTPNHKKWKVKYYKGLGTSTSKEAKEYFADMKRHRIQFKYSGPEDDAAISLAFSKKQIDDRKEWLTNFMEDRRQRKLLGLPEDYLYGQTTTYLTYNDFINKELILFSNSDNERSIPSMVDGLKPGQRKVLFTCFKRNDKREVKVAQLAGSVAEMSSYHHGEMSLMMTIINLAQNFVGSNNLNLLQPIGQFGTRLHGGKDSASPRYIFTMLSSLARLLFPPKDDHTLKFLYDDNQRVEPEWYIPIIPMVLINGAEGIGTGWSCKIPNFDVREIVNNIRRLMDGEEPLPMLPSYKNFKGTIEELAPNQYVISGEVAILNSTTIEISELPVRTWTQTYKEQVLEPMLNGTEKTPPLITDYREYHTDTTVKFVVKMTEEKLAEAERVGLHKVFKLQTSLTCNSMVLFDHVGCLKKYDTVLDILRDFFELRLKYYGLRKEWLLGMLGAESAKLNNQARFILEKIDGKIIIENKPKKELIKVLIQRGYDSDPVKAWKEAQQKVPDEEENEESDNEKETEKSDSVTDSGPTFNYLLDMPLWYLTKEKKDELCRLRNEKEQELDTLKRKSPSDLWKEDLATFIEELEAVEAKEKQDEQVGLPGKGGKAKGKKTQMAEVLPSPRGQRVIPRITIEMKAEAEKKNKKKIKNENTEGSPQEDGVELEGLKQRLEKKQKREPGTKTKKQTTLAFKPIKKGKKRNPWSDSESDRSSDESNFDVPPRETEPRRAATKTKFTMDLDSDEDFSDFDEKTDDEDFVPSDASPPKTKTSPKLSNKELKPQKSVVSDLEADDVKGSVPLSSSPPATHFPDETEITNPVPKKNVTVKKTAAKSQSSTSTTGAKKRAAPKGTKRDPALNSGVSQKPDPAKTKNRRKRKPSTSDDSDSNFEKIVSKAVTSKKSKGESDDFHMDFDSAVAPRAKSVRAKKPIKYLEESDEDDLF

| SMILES | inhibition [4] | IC50 [1] [nM] | selectivity ratio [2] | IC50 [3] [nM] |
| --- | --- | --- | --- | --- |
| COc1cc([C@@H]2c3cc4c(cc3[C@@H](O[C@@H]3O[C@@H]5CO[C@@H](C)O[C@H]5[C@H](O)[C@H]3O)[C@H]3COC(=O)[C@H]23)OCO4)cc(OC)c1O [ETOPOSIDE] | Active | 2870 | 6.7 | 19000 |
| COc1cc([C@@H]2c3cc4c(cc3[C@@H](OCc3ccccc3)[C@H]3COC(=O)[C@H]23)OCO4)cc(OC)c1O | Active | 3860 | 1.2 | 4550 |
| CCCCCCO[C@@H]1c2cc3c(cc2[C@@H](c2cc(OC)c(O)c(OC)c2)[C@H]2C(=O)OC[C@@H]21)OCO3 | Active | 5970 | 0.76 | 4550 |
| CCCCO[C@@H]1c2cc3c(cc2[C@@H](c2cc(OC)c(O)c(OC)c2)[C@H]2C(=O)OC[C@@H]21)OCO3 | Active | 2870 | 1.6 | 4620 |

Second part, led by results:

| inhibition [4] | SMILES | IC50 [1] [nM] | selectivity ratio [2] | IC50 [3] [nM] |
| --- | --- | --- | --- | --- |
| Active | COc1cc([C@@H]2c3cc4c(cc3[C@@H](OCc3ccc(CO[C@@H]5c6cc7c(cc6[C@@H](c6cc(OC)c(O)c(OC)c6)[C@H]6C(=O)OC[C@@H]65)OCO7)cc3)[C@H]3COC(=O)[C@H]23)OCO4)cc(OC)c1O | 360 | 1.7 | 600 |
| Active | COc1cc([C@@H]2c3cc4c(cc3[C@@H](OCCCCO[C@@H]3c5cc6c(cc5[C@@H](c5cc(OC)c(O)c(OC)c5)[C@H]5C(=O)OC[C@@H]53)OCO6)[C@H]3COC(=O)[C@H]23)OCO4)cc(OC)c1O | 70 | 4.3 | 300 |
| Active | COc1cc([C@@H]2c3cc4c(cc3[C@@H](OCCCCCCO[C@@H]3c5cc6c(cc5[C@@H](c5cc(OC)c(O)c(OC)c5)[C@H]5C(=O)OC[C@@H]53)OCO6)[C@H]3COC(=O)[C@H]23)OCO4)cc(OC)c1O | 120 | 2.5 | 300 |
